Patent US20230372382A1, “USE OF ADENOSINE DIPHOSPHATE RIBOSE FOR ADJUVANT THERAPY WITH RADIATION AND/OR ANTI-CANCER TREATMENT” (PearlsInMires Co., Ltd., priority 2021, published 2023)

Legend:
[1] = system: Brain cancer (U-87MG) cells; test: Xenograft model, combination with anti-cancer drug, tumor volume; assay type: in vivo, BALB/c nude mice; conditions: U-87MG xenograft
Protocol: (§1) Brain (U-87MG), lung (H1975), pancreatic (AsPC-1), or liver (Hep G2) cells (1×10^7 cells) were inoculated into 5-week-old BALB/c nude mice on the back flank, respectively. Then, when tumors were grown to a volume of approximately 150 mm^3, the mice were divided into the control group (control), an anti-cancer drug alone treatment group, and a combination treatment group. […] The tumor size was measured every 6 days using a digital caliper, and the results of changes in tumor volume were compared by the group.
Brain cancer (U-87MG) cells (1×10^7) were inoculated into 5-week-old BALB/c nude mice on the back flank, and the mice were divided into three groups: the control group (Control), single intraperitoneal administration of 25 mg/kg of Avastin (ingredient name: bevacizumab), and combination administration of Avastin+10 mg/kg of ADP-ribose. When the tumors were grown to a volume of approximately 150 mm^3, Avastin was administered intraperitoneally twice a week, and ADP-ribose at 10 mg/kg was injected subcutaneously 3 times a week. The tumor size was measured using a digital caliper, and the results of changes in tumor volume were compared by the group.

AsPC-1 cells = test: Cell death by combination treatment of ADP-ribose and radiation (MTT); assay type: cell-based; conditions: AsPC-1, 2 μM ADP-ribose in combination with 2 Gy radiation, 24 hours, P<0.001; 2 Gy alone about 87.3%
Protocol: (§4) 3×10^3 Brain cancer (U-87MG), lung cancer (H1975), pancreatic cancer (Aspc-1), liver cancer (Hep G2), breast cancer (MDA-MB-231), colon cancer (HCT116), and kidney cancer (Caki-1) cells were cultured in a 96-well plate for 24 hours under conditions of 37° C. and 5% CO2, treated with ADP-ribose or 2 or 5 Gy radiation alone or in combination with ADP-ribose and 2 Gy radiation, and cultured for 24 hours under conditions of 37° C. and 5% CO2 again. Then, 10 μl of 3-(4,5-dimethylthiazol-2-yl)-2,5-diphenyltetrazolium bromide reagent was added to each well and reacted for 1 hour. After the reaction was completed, the reagent was removed, 200 μl of dimethyl sulfoxide was added to each well, and the absorbance was measured to compare the degree of cell death.
3×10^3 AsPC-1 cells were cultured in a 96-well plate for 24 hours under conditions of 37° C. and 5% CO2, treated with 2 μM of ADP-ribose and 2 or 5 Gy dose of radiation individually or in combination, and cultured for 24 hours under conditions of 37° C. and 5% CO2 again. Then, 10 μl of 3-(4,5-dimethylthiazol-2-yl)-2,5-diphenyltetrazolium bromide reagent was added to each well and reacted for 1 hour. After the reaction was completed, the reagent was removed, 200 μl of dimethyl sulfoxide was added to each well, and the absorbance was measured to confirm cell viability.

HCT116 cells = test: as above; assay type: cell-based; conditions: HCT116, 16 μM ADP-ribose in combination with 2 Gy radiation, 24 hours, P<0.001; 2 Gy alone about 90.3%
Protocol: as §4
3×10^3 HCT116 cells were cultured in a 96-well plate for 24 hours under conditions of 37° C. and 5% CO2, treated with 16 μM of ADP-ribose and 2 or 5 Gy dose of radiation individually or in combination, and cultured for 24 hours under conditions of 37° C. and 5% CO2 again. Then, 10 μl of 3-(4,5-dimethylthiazol-2-yl)-2,5-diphenyltetrazolium bromide reagent was added to each well and reacted for 1 hour. After the reaction was completed, the reagent was removed, 200 μl of dimethyl sulfoxide was added to each well, and the absorbance was measured to confirm cell viability.

[2] = system: Breast cancer (MDA-MB-231) cells; test: Cell death by combination treatment with anti-cancer drug (MTT); assay type: cell-based; conditions: Homo sapiens, MDA-MB-231, 24 h
Protocol: 3×10^3 Brain cancer (U-87MG), lung cancer (H1975), pancreatic cancer (Aspc-1), liver cancer (Hep G2), breast cancer (MDA-MB-231), and colon cancer (HCT116) cells were cultured in a 96-well plate for 24 hours under conditions of 37° C. and 5% Ca2, respectively. […] After the treatment was terminated, the cells were cultured for 24 hours under conditions of 37° C. and 5% CO2 again, 10 μl of 3-(4,5-dimethylthiazol-2-yl)-2,5-diphenyltetrazolium bromide reagent was added to each well and reacted for 1 hour. After the reaction was completed, the reagent was removed, 200 μl of dimethyl sulfoxide was added to each well, and the absorbance was measured to compare the degree of cell death.
Then, 10 μl of 3-(4,5-dimethylthiazol-2-yl)-2,5-diphenyltetrazolium bromide reagent was added to each well and reacted for 1 hour. After the reaction was completed, the reagent was removed, 200 μl of dimethyl sulfoxide was added to each well, and the absorbance was measured to confirm cell viability.

U-87MG cells = test: Change over time in intracellular ADP-ribose, radiation versus ADP-ribose treatment (ELISA); assay type: cell-based; conditions: 8 μM ADP-ribose, even after 24 hours, after radiation back to untreated level at 24 hours
Protocol: (§2) Brain cancer (U-87MG), kidney cancer (Caki-1), pancreatic cancer (AsPC-1), or breast cancer (MDA-MB-231) cells were cultured in a 6-well plate, respectively, and the cells were divided into the untreated group, the radiation-treated group, and the ADP-ribose-treated group. Irradiation was performed using an X-Rad 320 irradiator (Precision X-ray, North Branford, CT, USA), and cancer cells were treated with a total of 1, 2, and 5 Gy at a dose rate of 300 kVp and 150 cGy/min using an X-ray beam filter composed of 12.5 mA and 2.0 mm Al, respectively. Before treatment and at 4, 8, 16, and 24 hours after treatment, the medium was removed, the cells were washed with phosphate-buffered saline, and then RIPA buffer was added and the products were left on ice for 20 minutes. After scraping the cells, the cells were put in a centrifuge tube and centrifuged for 10 minutes at 10,000 g and 4° C. The supernatant was obtained, and 1% SDS was added, and then the reaction product was boiled at 100° C. for 5 minutes and cooled on ice. The supernatant was centrifuged again at 10,000 g and 4° C. for 10 minutes to obtain the final supernatant, and ADP-ribose was quantitatively analyzed using an ELISA analysis kit (Cell Biolabs, Inc., San Diego, CA, USA). […]

[3] = system: Liver cancer (Hep G2) cells; test: Xenograft model, combination with anti-cancer drug, tumor volume; assay type: in vivo, BALB/c nude mice
Protocol: as §1
Liver cancer (Hep G2) cells (1×10^7) were inoculated into 5-week-old BALB/c nude mice on the back flank, and the mice were divided into three groups: the control group (Control), single oral administration of 10 mg/kg of sorafenib, and combination administration of sorafenib+10 mg/kg of ADP-ribose. When the tumors were grown to a volume of approximately 150 mm^3, sorafenib was administered orally 5 times a week, and ADP-ribose at 10 mg/kg was injected subcutaneously 3 times a week. The tumor size was measured using a digital caliper, and the results of changes in tumor volume were compared by the group.

[4] = system: Liver cancer (Hep G2) cells; test: Cell death by combination treatment with anti-cancer drug (MTT); conditions: Homo sapiens, HepG2, 24 h, read-out: viability of cancer cells
Protocol: 3×10^3 Liver cancer (Hep G2) cells were cultured in a 96-well plate for 24 hours under conditions of 37° C. and 5% CO2, treated with ADP-ribose at a concentration of 1.6 μM and sorafenib at 1 μM, individually or in combination, and cultured for 24 hours under conditions of 37° C. and 5% CO2 again. Then, 10 μl of 3-(4,5-dimethylthiazol-2-yl)-2,5-diphenyltetrazolium bromide reagent was added to each well and reacted for 1 hour. After the reaction was completed, the reagent was removed, 200 μl of dimethyl sulfoxide was added to each well, and the absorbance was measured to confirm cell viability.

MDA-MB-231 cells = test: Change over time in intracellular ADP-ribose, radiation versus ADP-ribose treatment (ELISA); assay type: cell-based; conditions: MDA-MB-231, 16 μM ADP-ribose, even after 24 hours; after radiation back to untreated level from 16 hours
Protocol: as §2

[5] = system: Pancreatic cancer (AsPC-1) cells; conditions: AsPC-1 xenograft
Protocol: as §1
The tumor size was measured using a digital caliper, and the results of changes in tumor volume were compared by the group.

[6] = system: human dermal papilla cell (HDPC); test: Toxicity in normal cells (MTT assay); assay type: cell-based; conditions: ADP-ribose 25, 50, 100 ul, 24, 48 and 72 hours
Protocol: (§3) As normal cells, human colon fibroblast (CCD-18Co) and human dermal papilla cell (HDPC) cells were used. […] Then, the cells were divided into a total of 4 groups: ADP-ribose untreated group (Untreated), and treated groups (treated with increased concentrations of 25, 50, 100 ul). Cell viability was compared by MTT assay after 24, 48, and 72 hours of drug treatment.

[7] = system: human colon fibroblast (CCD-18Co); test: Toxicity in normal cells (MTT assay); assay type: cell-based; conditions: ADP-ribose 25, 50, 100 ul, 24, 48 and 72 hours
Protocol: as §3

[8] = ADP-ribose 10 mg/kg s.c. in combination with Avastin 25 mg/kg, P<0.001
[9] = ADP-ribose 10 mg/kg s.c. in combination with sorafenib 10 mg/kg, P<0.001
[10] = ADP-ribose 10 mg/kg s.c. in combination with gemcitabine 50 mg/kg, P<0.001

SMILES: Nc1ncnc2c1ncn2[C@@H]1O[C@H](COP(=O)(O)OP(=O)(O)OC[C@H]2O[C@@H](O)C(O)C2O)C(O)C1O (some centres unmarked) [ADP-ribose, adenosine diphosphate ribose]
- reduction of tumor volume compared to the control group [1, 8]: about 87%
- reduction of tumor volume compared to the group treated with Avastin alone [1, 8]: about 79%
- final tumor volume ([1]; ADP-ribose 10 mg/kg subcutaneous 3 times a week in combination with Avastin 25 mg/kg, control about 2527.1): about 334.5 mm^3
- survival rate of cancer cells (AsPC-1 cells): about 8%
- survival rate of cancer cells (HCT116 cells): about 14%
- viability at 3.2 µM [2]: ~20%
- amount of ADP-ribose in the cells over time compared to the control group (U-87MG cells): maintained a significant (P<0.001) increase
- reduction of tumor volume compared to the control group [3, 9]: about 76%
- reduction of tumor volume compared to the group treated with sorafenib alone [3, 9]: about 70%
- final tumor volume ([3]; ADP-ribose 10 mg/kg subcutaneous 3 times a week in combination with sorafenib 10 mg/kg, control about 2322.4): about 546 mm^3
- viability at 1.6 µM [4]: ~0.9%
- amount of ADP-ribose in the cells over time compared to the control group (MDA-MB-231 cells): maintained a significant (P<0.001) increase
- reduction of tumor volume compared to the control group [5, 10]: about 80%
- reduction of tumor volume compared to the group treated with gemcitabine alone [5, 10]: about 76%
- final tumor volume ([5]; ADP-ribose 10 mg/kg subcutaneous 3 times a week in combination with gemcitabine 50 mg/kg, control about 2174.3): about 444.3 mm^3
- toxicity to normal cells (cell viability, MTT assay) [6]: no toxicity was observed
- toxicity to normal cells (cell viability, MTT assay) [7]: no toxicity was observed
